From patent publication US20100280084A1, “Cyp1B1 Genotype” (Government of the US, as represented by the Secret ary, …, priority 2005, published 2010)

Assays:
[1] = Docetaxel clearance as a function of CYP1B1*3 genotype in 23 patients; conditions: human, in vivo, P=0.39
Description: To exclude the possibility that the observed decreased survival time for subjects carrying the CYP1B1*3/*3 variant was the result of altered exposure to docetaxel, the pharmacokinetic data generated in a previous study (15) in 23 patients treated with docetaxel as a function of CYP1B1*3 genotype was analyzed.

[2] = tested on: androgen-independent prostate cancer (AIPC); assay: Survival by CYP1B1*3 genotype in men with AIPC treated with docetaxel (Kaplan-Meier); assay type: in vivo, human; conditions: for overall median survival: docetaxel 30 mg/m^2 1-hour i.v. weekly for 3 weeks, 1-week rest
Description: FIG. 1 depicts Kaplan-Meier curves of overall survival (o-CYP1B1*3; *-CYP1B1*1/*1 and CYP1B1*1/*3) (A) and overall progression free survival (B) in men with prostate cancer treated with docetaxel as a function of CYP1B1*3 genotype. All patients received docetaxel as a 1-hour intravenous infusion at a dose of 30 mg/m^2 in cycles of once every week for 3 consecutive weeks, followed by a 1-week rest period (n=25). DNA was extracted from a […] using a QiaBlood extraction kit (Qiagen, Valencia, Calif.) and stored at 4° C. The CYP1B1*3 alleles were analyzed by direct sequencing. The primers used for sequencing and amplification of the variant were as follows: F4-[…]; R4-[…]; F5-[…]; R5-[…]. A 50-μl reaction was prepared for polymerase chain reaction (PCR) amplification using primers F4 and R4. The reaction consisted of 1×PCR buffer, 2 mM of each of the four deoxynucleotidetriphosphates (dNTPs), 1.5 mM magnesium chloride, and 1 unit of Platinum Taq DNA polymerase. PCR conditions were: 94° C. for 5 minutes, followed by 40 cycles of 94° C. for 30 seconds, 66° C. for 30 seconds, and 72° C. for 30 seconds, with a final 7-minute cycle at 72° C. Direct nucleotide sequencing PCR was conducted using the Big Dye Terminator Cycle Sequencing Ready Reaction kit V1.1 on an ABI Prism 310 Genetic Analyzer (Applied BioSystems, Foster City, Calif.).
The CYP1B1 genotypes on germline DNA obtained from 25 men with AIPC treated with docetaxel (Aventis Pharmaceuticals, Bridgewater, N.J.) were retrospectively evaluated. The subjects were administered docetaxel intravenously over 1-hour at a dose of 30 mg/m^2 in whom detailed survival data were available (Table 1). Inclusion and exclusion criteria have been previously published (12). The study protocol was approved by the Institutional Review Board (Bethesda, Md.), and all patients provided written informed consent. DNA was isolated from whole blood and variants in the CYP1B1 gene were analyzed by direct nucleotide sequencing (see Legend to FIG. 1). The association between genotypes and progression-free survival and overall survival was determined by the Kaplan-Meier method using a two-tailed log rank test. The homozygous wild-type (CYP1B1*1/*1) and heterozygous variant (CYP1B1*1/*3) genotypes were pooled in the analysis on the basis of similarity of outcomes. The associated p-value was adjusted to be two times the unadjusted value to account for the two implicit comparisons made in determining the desirability of combining groups. Progression was censored at the off study date if a patient was removed for toxicity or another reason.

[3] = tested on: transfected Chinese hamster ovary cells; conditions: reversible by chemical inhibition (references 2, 3); cited from earlier work
CYP1B1 [4] = target: T1, CYP1B1 (Homo sapiens, UniProt Q16678); conditions: previous preclinical studies (references 2, 3); cited from earlier work
T1 sequence (Q16678 1-543): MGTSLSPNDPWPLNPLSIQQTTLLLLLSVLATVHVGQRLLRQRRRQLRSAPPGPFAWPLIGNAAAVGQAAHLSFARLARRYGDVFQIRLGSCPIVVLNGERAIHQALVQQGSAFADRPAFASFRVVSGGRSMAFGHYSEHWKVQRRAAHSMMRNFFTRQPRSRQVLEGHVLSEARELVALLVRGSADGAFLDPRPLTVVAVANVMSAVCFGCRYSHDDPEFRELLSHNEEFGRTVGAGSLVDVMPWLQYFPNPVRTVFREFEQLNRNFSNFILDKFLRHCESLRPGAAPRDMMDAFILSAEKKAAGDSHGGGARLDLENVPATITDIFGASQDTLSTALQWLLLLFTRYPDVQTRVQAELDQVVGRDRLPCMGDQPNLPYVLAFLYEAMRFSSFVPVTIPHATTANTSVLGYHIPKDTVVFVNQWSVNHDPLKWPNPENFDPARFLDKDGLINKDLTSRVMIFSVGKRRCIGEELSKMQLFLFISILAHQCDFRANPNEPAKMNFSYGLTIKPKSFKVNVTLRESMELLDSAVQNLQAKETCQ

CYP1B1 [5] = target: T1, CYP1B1; conditions: in vitro studies (reference 16); cited from earlier work

Compound: CC(=O)O[C@@]12CO[C@@H]1C[C@H](O)[C@@]1(C)C(=O)[C@H](O)C3=C(C)[C@@H](OC(=O)[C@H](O)[C@@H](NC(=O)OC(C)(C)C)c4ccccc4)C[C@@](O)([C@@H](OC(=O)c4ccccc4)[C@H]21)C3(C)C [docetaxel]
- clearance ([1]; patients homozygous for the variant allele, 95% CI 26.9 to 37.0 L/h): 533 mL/min
- clearance ([1]; patients homozygous or heterozygous for the wild-type allele, 95% CI 27.5 to 48.9 L/h): 637 mL/min
- overall median survival ([2]; 5 patients homozygote variant (CYP1B1*3/*3)): 7.5 months
- overall median survival ([2]; 7 wild type plus 13 heterozygotes (CYP1B1*1/*1 and *1/*3 pooled)): 15.3 months
- progression free survival ([2]; CYP1B1*3/*3 variant, P=0.13 versus pooled genotypes): 3.3 months
- decrease in median survival time ([2]; CYP1B1*3/*3 versus pooled wild type and heterozygotes, P=0.012): 7.8 months
- progression free survival ([2]; pooled wild type and heterozygous genotypes, P=0.13 versus CYP1B1*3/*3): 6.2 months
- effect of CYP1B1 overexpression on cellular sensitivity to docetaxel [3]: docetaxel resistance
- inhibition of CYP1B1-mediated ethoxyresorufin O-deethylation (CYP1B1 [4]): competitively inhibits
- metabolism by CYP1B1 (CYP1B1 [5]): not directly metabolized by CYP1B1
